We go through 20 molecules from patent US10479780B2, “Aminopyrazole derivatives” (Chugai Seiyaku Kabushiki Kaisha, priority 2015, dated 2019).

Molecules are shown by their SMILES.

What all share (format): biochemical
Assay [1] has as its target T1, human Src enzyme (Homo sapiens, UniProt P12931).
T1 construct: purchased Carna Biosciences, Inc. 08-173
In words: Src enzyme inhibitory activity (time-resolved fluorometry, biotinylated peptide phosphorylation). The following applies: read-out: SRC_IC50. In short, it runs like this:
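Compounds were tested for blocking tyrosine phosphorylation of a biotinylated peptide substrate by recombinant human Src. Phosphorylated product was quantified by time-resolved fluorometry using europium cryptate and XL665 conjugates, and IC50 was calculated against the compound-free control.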

For assay [2], the target named is T2, human Yes1 enzyme (Homo sapiens, UniProt P07947).
T2 construct: made in house
In words: Yes1 enzyme inhibitory activity (time-resolved fluorometry, biotinylated peptide phosphorylation). The following applies: read-out: YES_IC50. An outline of the steps: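 Inhibition was expressed against a compound-free control to give IC50, using TR-FRET read-out (Eu-cryptate anti-pTyr antibody, streptavidin-XL665).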

Assay [3] addresses T3, human Lck enzyme (Homo sapiens, UniProt P06239).
T3 construct: purchased Carna Biosciences, Inc. 08-170
In words: Lck enzyme inhibitory activity (time-resolved fluorometry, biotinylated peptide phosphorylation). As to conditions: read-out: LCK_IC50. An outline of the steps:
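Readout pairs a europium cryptate-labelled anti-phosphotyrosine antibody with XL665-streptavidin, measured by time-resolved fluorescence. IC50 derived from percent inhibition against untreated controls.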

T1 sequence (P12931 whole entry): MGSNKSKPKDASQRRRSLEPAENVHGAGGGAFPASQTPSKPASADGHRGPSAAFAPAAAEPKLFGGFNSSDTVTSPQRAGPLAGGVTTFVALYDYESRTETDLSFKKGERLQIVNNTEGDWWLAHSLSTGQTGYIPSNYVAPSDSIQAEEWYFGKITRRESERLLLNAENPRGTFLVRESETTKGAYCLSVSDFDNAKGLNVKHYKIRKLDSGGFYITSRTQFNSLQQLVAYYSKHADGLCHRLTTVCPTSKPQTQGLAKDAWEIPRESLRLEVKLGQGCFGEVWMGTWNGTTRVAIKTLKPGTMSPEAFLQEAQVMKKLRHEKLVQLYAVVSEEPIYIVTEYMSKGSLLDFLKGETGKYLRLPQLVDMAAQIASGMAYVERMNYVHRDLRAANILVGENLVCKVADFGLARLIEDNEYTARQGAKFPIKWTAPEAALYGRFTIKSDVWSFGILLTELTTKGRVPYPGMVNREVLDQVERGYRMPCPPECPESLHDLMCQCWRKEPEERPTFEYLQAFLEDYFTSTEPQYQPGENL
T3 sequence (P06239 whole entry): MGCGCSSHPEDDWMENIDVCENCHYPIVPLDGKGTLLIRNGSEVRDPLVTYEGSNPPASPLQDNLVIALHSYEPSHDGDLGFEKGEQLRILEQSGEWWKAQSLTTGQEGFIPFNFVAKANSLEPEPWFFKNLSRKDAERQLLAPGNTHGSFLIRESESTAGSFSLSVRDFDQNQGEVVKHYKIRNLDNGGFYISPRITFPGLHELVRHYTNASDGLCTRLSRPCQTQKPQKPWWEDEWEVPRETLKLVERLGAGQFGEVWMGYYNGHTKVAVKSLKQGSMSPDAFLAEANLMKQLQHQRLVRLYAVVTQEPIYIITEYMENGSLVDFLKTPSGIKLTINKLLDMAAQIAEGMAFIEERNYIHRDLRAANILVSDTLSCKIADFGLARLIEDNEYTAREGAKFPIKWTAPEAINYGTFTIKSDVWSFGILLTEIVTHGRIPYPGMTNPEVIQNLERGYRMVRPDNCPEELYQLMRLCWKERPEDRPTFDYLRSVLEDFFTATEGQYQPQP
T2 sequence (P07947 whole entry): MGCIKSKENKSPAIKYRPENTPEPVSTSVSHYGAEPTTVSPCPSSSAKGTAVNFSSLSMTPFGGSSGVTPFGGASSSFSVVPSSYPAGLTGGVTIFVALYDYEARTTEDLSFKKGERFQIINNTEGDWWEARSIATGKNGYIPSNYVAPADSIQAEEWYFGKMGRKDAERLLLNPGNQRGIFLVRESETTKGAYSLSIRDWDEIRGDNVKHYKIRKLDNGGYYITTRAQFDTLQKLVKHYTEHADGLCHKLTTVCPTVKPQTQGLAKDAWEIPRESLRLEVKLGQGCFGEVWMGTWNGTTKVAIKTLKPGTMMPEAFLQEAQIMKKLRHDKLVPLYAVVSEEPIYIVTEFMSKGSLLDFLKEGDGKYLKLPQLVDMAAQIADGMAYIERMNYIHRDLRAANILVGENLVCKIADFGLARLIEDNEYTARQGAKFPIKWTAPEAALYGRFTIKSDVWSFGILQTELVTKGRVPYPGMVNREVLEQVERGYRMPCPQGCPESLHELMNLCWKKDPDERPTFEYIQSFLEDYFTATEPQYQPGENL

For the molecule `Cc1cc2cc(C(=O)c3cnn(-c4cnc(Oc5c(F)cccc5F)cc4C)c3N)[nH]c2cc1N1C(=O)NC2(CC2)C1=O` [Example 5-1-366, 6-[2-[5-amino-1-[6-(2,6-difluorophenoxy)-4-methylpyridin-3-yl]pyrazole-4-carbonyl]-5-methyl-1H-indol-6-yl]-4,6-diazaspiro[2.4] heptane-5,7-dione], the IC50 in assay [1] came out at 39 nM; in assay [2] it was 3.7 nM; in assay [3] it was 9.9 nM.
Turning to `Cc1cc2cc(C(=O)c3cnn(-c4cnc(Oc5c(F)cccc5F)cc4C)c3N)[nH]c2cc1N1C(=O)NC2(CCCC2)C1=O` [Example 5-1-367, 3-[2-[5-amino-1-[6-(2,6-difluorophenoxy)-4-methylpyridin-3-yl]pyrazole-4-carbonyl]-5-methyl-1H-indol-6-yl]-1,3-diazaspiro[4.4] nonane-2,4-dione], the IC50 in assay [1] was determined as 77 nM; in assay [2] it was 5.6 nM; in assay [3], 16 nM.
Consider `Cc1cc(Oc2c(F)cccc2F)ncc1-n1ncc(C(=O)c2cc3cc(F)c(N4C(=O)NC5(CCOCC5)C4=O)cc3[nH]2)c1N` [Example 5-1-368, 3-[2-[5-amino-1-[6-(2,6-difluorophenoxy)-4-methylpyridin-3-yl]pyrazole-4-carbonyl]-5-fluoro-1H-indol-6-yl]-8-oxa-1,3-diazaspiro[4.5] decane-2,4-dione], for which the IC50 is 62 nM in assay [1], 3.8 nM in assay [2] and 8.7 nM in assay [3].
In the case of `Cc1cc(Oc2c(F)cccc2F)ncc1-n1ncc(C(=O)c2cc3cc(F)c(N4C(=O)NC5(CCCCC5)C4=O)cc3[nH]2)c1N` [Example 5-1-369, 3-[2-[5-amino-1-[6-(2,6-difluorophenoxy)-4-methylpyridin-3-yl]pyrazole-4-carbonyl]-5-fluoro-1H-indol-6-yl]-1,3-diazaspiro[4.5]decane-2,4-dione], the IC50 was determined as 560 nM in assay [1], 22 nM in assay [2] and 79 nM in assay [3].
Consider `Cc1cc(Oc2c(F)cccc2F)ncc1-n1ncc(C(=O)c2cc3cc(F)c(N4C(=O)NC(C)(C(F)(F)F)C4=O)cc3[nH]2)c1N` (stereo not drawn) [Example 5-1-370, 3-[2-[5-amino-1-[6-(2,6-difluorophenoxy)-4-methylpyridin-3-yl]pyrazole-4-carbonyl]-5-fluoro-1H-indol-6-yl]-5-methyl-5-(trifluoromethyl)imidazolidine-2,4-dione], for which the IC50 in assay [1] was found to be 150 nM; in assay [2] it was 8.3 nM; in assay [3] it was 27 nM.
The matching figures for `Cc1cc2cc(C(=O)c3cnn(-c4ccc(Oc5ccccc5F)cc4C)c3N)[nH]c2cc1N1C(=O)NC2(CCC2)C1=O` [Example 5-1-371, 7-[2-[5-amino-1-[4-(2-fluorophenoxy)-2-methylphenyl]pyrazole-4-carbonyl]-5-methyl-1H-indol-6-yl]-5,7-diazaspiro[3.4]octane-6,8-dione]: 30 nM, 2 nM and 9.8 nM.
For `Cc1cc2cc(C(=O)c3cnn(-c4ccc(Oc5ccccc5F)cc4C)c3N)[nH]c2cc1N1C(=O)NC2(CC2)C1=O` [Example 5-1-372, 6-[2-[5-amino-1-[4-(2-fluorophenoxy)-2-methylphenyl]pyrazole-4-carbonyl]-5-methyl-1H-indol-6-yl]-4,6-diazaspiro[2.4]heptane-5,7-dione] the same measures were 16 nM, 1.3 nM and 6.1 nM.
For the molecule `Cc1cc2cc(C(=O)c3cnn(-c4ccc(Oc5ccccc5F)cc4C)c3N)[nH]c2cc1N1C(=O)NC2(CCCC2)C1=O` [Example 5-1-373, 3-[2-[5-amino-1-[4-(2-fluorophenoxy)-2-methylphenyl]pyrazole-4-carbonyl]-5-methyl-1H-indol-6-yl]-1,3-diazaspiro[4.4]nonane-2,4-dione], the results for the IC50 in assay [1], in assay [2] and in assay [3] were 48 nM, 3.1 nM and 14 nM, respectively.
Consider `Cc1cc(Oc2ccccc2F)ccc1-n1ncc(C(=O)c2cc3cc(F)c(N4C(=O)NC5(CCC5)C4=O)cc3[nH]2)c1N` [Example 5-1-374, 7-[2-[5-amino-1-[4-(2-fluorophenoxy)-2-methylphenyl]pyrazole-4-carbonyl]-5-fluoro-1H-indol-6-yl]-5,7-diazaspiro[3.4]octane-6,8-dione], for which the IC50 in assay [1] was determined as 36 nM; in assay [2], 2.9 nM; in assay [3] it was 13 nM.
For `Cc1cc(Oc2ccccc2F)ccc1-n1ncc(C(=O)c2cc3cc(F)c(N4C(=O)NC5(CC5)C4=O)cc3[nH]2)c1N` [Example 5-1-375, 6-[2-[5-amino-1-[4-(2-fluorophenoxy)-2-methylphenyl]pyrazole-4-carbonyl]-5-fluoro-1H-indol-6-yl]-4,6-diazaspiro[2.4]heptane-5,7-dione], the IC50 in assay [1] stood at 24 nM; in assay [2], 2 nM; in assay [3] it was 7.1 nM.
For `Cc1cc(Oc2ccccc2F)ccc1-n1ncc(C(=O)c2cc3cc(F)c(N4C(=O)NC5(COC5)C4=O)cc3[nH]2)c1N` [Example 5-1-376, 7-[2-[5-amino-1-[4-(2-fluorophenoxy)-2-methylphenyl]pyrazole-4-carbonyl]-5-fluoro-1H-indol-6-yl]-2-oxa-5,7-diazaspiro[3.4] octane-6,8-dione] the same measures were 14 nM, 1.4 nM and 4 nM.
Regarding `Cc1cc(Oc2ccccc2F)ncc1-n1ncc(C(=O)c2cc3cc(OCC(F)F)c(N4C(=O)NC(C)(C)C4=O)cc3[nH]2)c1N` [Example 5-1-377, 3-[2-[5-amino-1-[6-(2-fluorophenoxy)-4-methylpyridin-3-yl]pyrazole-4-carbonyl]-5-(2,2-difluoroethoxy)-1H-indol-6-yl]-5,5-dimethylimidazolidine-2,4-dione], the IC50 is 17 nM in assay [1], 2 nM in assay [2] and 7.4 nM in assay [3].
Consider `Cc1cc(Oc2ccccc2F)ncc1-n1ncc(C(=O)c2cc3cc(F)c(NS(=O)(=O)C4CCOCC4)cc3[nH]2)c1N` [Example 5-1-378, N-[2-[5-amino-1-[6-(2-fluorophenoxy)-4-methylpyridin-3-yl]pyrazole-4-carbonyl]-5-fluoro-1H-indol-6-yl]oxane-4-sulfonamide], for which the IC50 in assay [1] came to 63 nM; in assay [2] it was 2.8 nM; in assay [3], 37 nM.
For `Cc1cc(Oc2ccccc2F)ncc1-n1ncc(C(=O)c2cc3cc(F)c(N4C(=O)NC(C)(C)C4=O)cc3[nH]2)c1N` [Example 5-1-379, 3-[2-[5-amino-1-[6-(2-fluorophenoxy)-4-methylpyridin-3-yl]pyrazole-4-carbonyl]-5-fluoro-1H-indol-6-yl]-5,5-dimethylimidazolidine-2,4-dione], the IC50 came out at 61 nM in assay [1], 4.5 nM in assay [2] and 11 nM in assay [3].
For the molecule `Cc1cc(Oc2c(F)cccc2F)ncc1-n1ncc(C(=O)c2cc3cc(OC(F)F)c(NS(=O)(=O)C4CCOCC4)cc3[nH]2)c1N` [Example 5-1-380, N-[2-[5-amino-1-[6-(2,6-difluorophenoxy)-4-methylpyridin-3-yl]pyrazole-4-carbonyl]-5-(difluoromethoxy)-1H-indol-6-yl]oxane-4-sulfonamide], the values for the IC50 in assay [1], in assay [2] and in assay [3] were 95 nM, 6.3 nM and 110 nM, respectively.
The matching figures for `Cc1cc(Oc2c(F)cccc2F)ncc1-n1ncc(C(=O)c2cc3cc(F)c(NS(=O)(=O)C4CCOCC4)cc3[nH]2)c1N` [Example 5-1-381, N-[2-[5-amino-1-[6-(2,6-difluorophenoxy)-4-methylpyridin-3-yl]pyrazole-4-carbonyl]-5-fluoro-1H-indol-6-yl]oxane-4-sulfonamide]: 56 nM, 3.3 nM and 43 nM.
For `Cc1cc(Oc2c(F)cccc2F)ncc1-n1ncc(C(=O)c2cc3cc(OCC(F)F)c(NS(=O)(=O)c4cccc(C#N)c4)cc3[nH]2)c1N` [Example 5-1-382, N-[2-[5-amino-1-[6-(2,6-difluorophenoxy)-4-methylpyridin-3-yl]pyrazole-4-carbonyl]-5-(2,2-difluoroethoxy)-1H-indol-6-yl]-3-cyanobenzenesulfonamide] the same measures were 260 nM, 2.5 nM and 31 nM.
Take `Cc1cc(Oc2c(F)cccc2F)ncc1-n1ncc(C(=O)c2cc3cc(OCC(F)F)c(NS(=O)(=O)c4cccc(Cl)c4)cc3[nH]2)c1N` [Example 5-1-383, N-[2-[5-amino-1-[6-(2,6-difluorophenoxy)-4-methylpyridin-3-yl]pyrazole-4-carbonyl]-5-(2,2-difluoroethoxy)-1H-indol-6-yl]-3-chlorobenzenesulfonamide]: the IC50 in assay [1] came out at 630 nM; in assay [2], 9.2 nM; in assay [3] it was 270 nM.
The matching figures for `Cc1cc(Oc2c(F)cccc2F)ncc1-n1ncc(C(=O)c2cc3cc(OCC(F)F)c(NS(=O)(=O)c4cccnc4)cc3[nH]2)c1N` [Example 5-1-384, N-[2-[5-amino-1-[6-(2,6-difluorophenoxy)-4-methylpyridin-3-yl]pyrazole-4-carbonyl]-5-(2,2-difluoroethoxy)-1H-indol-6-yl]pyridine-3-sulfonamide]: 90 nM, 2.4 nM and 44 nM.
As to `Cc1cc(-n2ncc(C(=O)c3cc4cc(OC5CCN(C6CCCC6)CC5)c(-c5ccccc5C(F)(F)F)cc4[nH]3)c2N)ccc1Oc1ccccc1F` [Example 5-1-385, (5-amino-1-(4-(2-fluorophenoxy)-3-methylphenyl)-1H-pyrazol-4-yl)(5-((1-cyclopentylpiperidin-4-yl)oxy)-6-(2-(trifluoromethyl)phenyl)-1H-indol-2-yl)methanone], the IC50 in assay [1] is 2400 nM; in assay [2] it was 3 nM; in assay [3], 390 nM.
